In PubChem BioAssay AID248 (DTP/NCI, 2004):
Values joined by “and” are separate entries in the source; they are usually repeats but may differ in a detail not shown here. Equal entries are not always repeated. Inconclusive results and toxic doses are left out. No stated cut-off is given here; in the data, active means T/C of 150% or more; inactive means T/C below 125%. Peptide text beside a SMILES is read from it. * marks the point of attachment. Cbz = O=C(OCc1ccccc1)*

System: L1210 leukemia ip in BDF1 mice, survival T/C
Test: NCI In Vivo Anticancer Drug Screen. Data for tumor model L1210 Leukemia (intraperitoneal) in B6D2F1 (BDF1) mice
Conditions: endpoint: mean survival time, higher = longer survival
Method in brief: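 Read-out is survival time, reported as the treated-group measurement over the vehicle-control measurement.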

[1] = dose: 100.0 mg/kg/injection, schedule: Q01DX009 (ip), vehicle: Klucel (hydroxypropylcellulose) (HPC)
[2] = dose: 100.0 mg/kg/injection, schedule: Q04DX003 (ip), vehicle: Klucel (hydroxypropylcellulose) (HPC)
[3] = dose: 200.0 mg/kg/injection, schedule: Q01DX009 (ip), vehicle: Klucel (hydroxypropylcellulose) (HPC)
[4] = dose: 200.0 mg/kg/injection, schedule: Q04DX003 (ip), vehicle: Klucel (hydroxypropylcellulose) (HPC)
[5] = dose: 400.0 mg/kg/injection, schedule: Q01DX009 (ip), vehicle: Klucel (hydroxypropylcellulose) (HPC)
[6] = dose: 400.0 mg/kg/injection, schedule: Q04DX003 (ip), vehicle: Klucel (hydroxypropylcellulose) (HPC)
[7] = dose: 50.0 mg/kg/injection, schedule: Q01DX009 (ip), vehicle: Klucel (hydroxypropylcellulose) (HPC)
[8] = dose: 100.0 mg/kg/injection, schedule: Q01DX001 (ip), vehicle: saline
[9] = dose: 200.0 mg/kg/injection, schedule: Q01DX001 (ip), vehicle: saline
[10] = dose: 100.0 mg/kg/injection, schedule: Q01DX001 (ip), vehicle: other
[11] = dose: 200.0 mg/kg/injection, schedule: Q01DX001 (ip), vehicle: other
[12] = dose: 400.0 mg/kg/injection, schedule: Q01DX001 (ip), vehicle: other

Measured: T/C

CC(C)(Br)C(=O)c1ccc(-c2ccccc2)cc1
inactive: dose: 25.0 mg/kg/injection, schedule: Q01DX009 (ip), vehicle: water 101 % of control | dose: 50.0 mg/kg/injection, schedule: Q01DX009 (ip), vehicle: water 101 % of control | [1] 89 % of control | dose: 100.0 mg/kg/injection, schedule: Q01DX009 (ip), vehicle: water 98 % of control | [2] 100 % of control | [3] 87 % of control | dose: 200.0 mg/kg/injection, schedule: Q01DX009 (ip), vehicle: water 95 % of control | [4] 94 % of control | [5] 92 % of control | dose: 400.0 mg/kg/injection, schedule: Q01DX009 (ip), vehicle: water 92 % of control | [6] 91 % of control

O=S(=O)(C(Cl)(Cl)Cl)C(Cl)(Cl)Cl
inactive: dose: 25.0 mg/kg/injection, schedule: Q01DX009 (ip), vehicle: Klucel (hydroxypropylcellulose) (HPC) 95 % of control | [7] 98 % of control | [1] 93 % of control

O=NN(Cc1ccc(Cl)cc1)Nc1ncc[nH]1
inactive: dose: 100.0 mg/kg/injection, schedule: Q04DX002 (ip), vehicle: Klucel (hydroxypropylcellulose) (HPC) 101 % of control | dose: 200.0 mg/kg/injection, schedule: Q04DX002 (ip), vehicle: Klucel (hydroxypropylcellulose) (HPC) 96 % of control | dose: 400.0 mg/kg/injection, schedule: Q04DX002 (ip), vehicle: Klucel (hydroxypropylcellulose) (HPC) 93 % of control

N#C/C([S-])=C(/[S-])C#N.N#C/C([S-])=C(/[S-])C#N.[Co].c1ccc([P+](c2ccccc2)(c2ccccc2)c2ccccc2)cc1
inactive: dose: 75.0 mg/kg/injection, schedule: Q01DX009 (ip), vehicle: Klucel (hydroxypropylcellulose) (HPC) 121 % of control | dose: 75.0 mg/kg/injection, schedule: Q04DX003 (ip), vehicle: saline 100 % of control | dose: 150.0 mg/kg/injection, schedule: Q01DX009 (ip), vehicle: Klucel (hydroxypropylcellulose) (HPC) 110 % of control | dose: 150.0 mg/kg/injection, schedule: Q04DX003 (ip), vehicle: saline 110 % of control | dose: 300.0 mg/kg/injection, schedule: Q01DX009 (ip), vehicle: Klucel (hydroxypropylcellulose) (HPC) 103 % of control | dose: 300.0 mg/kg/injection, schedule: Q04DX003 (ip), vehicle: saline 98 % of control

CC1C(OC(=O)CCc2ccccc2)=CCC2C1(C)CCC1C2(C)CCC2(C)C3CC(C)(C)CCC3(C)CCC12C (stereo unspecified)
inactive: dose: 50.0 mg/kg/injection, schedule: Q01DX001 (ip), vehicle: saline 98 % of control | [8] 102 % of control | [9] 95 % of control

Cc1ccc(CNC(=O)NCCCCCCNC(=O)NCc2ccc(C)cc2)cc1
inactive: dose: 100.0 mg/kg/injection, schedule: Q01DX009 (ip), vehicle: other 95 % of control | dose: 200.0 mg/kg/injection, schedule: Q01DX009 (ip), vehicle: other 100 % of control | dose: 400.0 mg/kg/injection, schedule: Q01DX009 (ip), vehicle: other 100 % of control

O=C(c1ccccc1)C(Br)[N+](=O)[O-] (stereo unspecified)
inactive: [8] 100 % of control | [9] 103 % of control | dose: 400.0 mg/kg/injection, schedule: Q01DX001 (ip), vehicle: saline 96 % of control

CC(C)C(/C=N/N=C(N)N)=N\N=C(N)N
inactive: dose: 15.0 mg/kg/injection, schedule: Q01DX Z (ip), vehicle: methylcellulose (MC) 94 % of control | dose: 30.0 mg/kg/injection, schedule: Q01DX Z (ip), vehicle: methylcellulose (MC) 105 % of control | dose: 60.0 mg/kg/injection, schedule: Q01DX Z (ip), vehicle: methylcellulose (MC) 94 % of control | dose: 120.0 mg/kg/injection, schedule: Q01DX Z (ip), vehicle: methylcellulose (MC) 96 % of control

CC1CC(NC(=S)N(C)C)CC(C)(C)C1 (stereo unspecified)
inactive: [7] 92 % of control | [1] 100 % of control | [3] 102 % of control

N#CC1(NC(Cc2ccccc2)c2ccccc2)CCCC1 (stereo unspecified)
inactive: [1] 114 % of control | [3] 95 % of control | [5] 92 % of control

Cc1cccc[n+]1Cc1ccccc1
inactive: dose: 9.38 mg/kg/injection, schedule: Q01DX001 (ip), vehicle: saline 100 % of control | dose: 18.75 mg/kg/injection, schedule: Q01DX001 (ip), vehicle: saline 97 % of control | dose: 37.5 mg/kg/injection, schedule: Q01DX001 (ip), vehicle: saline 101 % of control

COc1cc(NS(=O)(=O)c2ccc(C(C)=O)cc2)nc(OC)n1
inactive: [1] 94 % of control | [3] 102 % of control | [5] 98 % of control

COc1cc2c(cc1OC)C(CC1=C(c3ccccc3)CN3CCc4cc(OC)c(OC)cc4C3C1)NCC2 (stereo unspecified)
inactive: dose: 4.0 mg/kg/injection, schedule: Q04DX003 (ip), vehicle: water 106 % of control and 102 % of control | dose: 8.0 mg/kg/injection, schedule: Q04DX003 (ip), vehicle: water 98 % of control and 101 % of control | dose: 16.0 mg/kg/injection, schedule: Q04DX003 (ip), vehicle: water 106 % of control and 103 % of control | dose: 32.0 mg/kg/injection, schedule: Q04DX003 (ip), vehicle: water 102 % of control and 96 % of control | dose: 64.0 mg/kg/injection, schedule: Q04DX003 (ip), vehicle: water 96 % of control and 95 % of control | dose: 75.0 mg/kg/injection, schedule: Q01DX001 (ip), vehicle: saline 101 % of control and 97 % of control | dose: 150.0 mg/kg/injection, schedule: Q01DX001 (ip), vehicle: saline 94 % of control and 92 % of control

Cc1csc2nc(-c3ccccc3)nc(Cl)c12
inactive: dose: 100.0 mg/kg/injection, schedule: Q04DX003 (ip), vehicle: saline sonified 97 % of control | dose: 200.0 mg/kg/injection, schedule: Q04DX003 (ip), vehicle: saline sonified 93 % of control | dose: 400.0 mg/kg/injection, schedule: Q04DX003 (ip), vehicle: saline sonified 95 % of control

Cc1cc(C)c(F)c(Br)c1N
inactive: dose: 50.0 mg/kg/injection, schedule: Q04DX003 (ip), vehicle: Klucel (hydroxypropylcellulose) (HPC) 95 % of control | dose: 100.0 mg/kg/injection, schedule: Q01DX001 (ip), vehicle: Klucel (hydroxypropylcellulose) (HPC) 97 % of control | [2] 95 % of control | dose: 200.0 mg/kg/injection, schedule: Q01DX001 (ip), vehicle: Klucel (hydroxypropylcellulose) (HPC) 101 % of control | [4] 106 % of control | dose: 400.0 mg/kg/injection, schedule: Q01DX001 (ip), vehicle: Klucel (hydroxypropylcellulose) (HPC) 100 % of control

Cc1ncc(CO)c(/C=N\OCc2cc(Cl)sc2Cl)c1O
inactive: [2] 93 % of control | [4] 93 % of control | [6] 104 % of control

Nc1nnnc2c1cnn2C1OC(CO)C(O)C1O (stereo unspecified)
inactive: [10] 97 % of control | [11] 101 % of control | [12] 101 % of control

CC(=O)OC1C(C)OC(n2cnc3c(=S)nc[nH]c32)C1OC(C)=O (stereo unspecified)
inactive: dose: 50.0 mg/kg/injection, schedule: Q01DX001 (ip), vehicle: carboxymethylcellulose (CMC) 103 % of control | dose: 100.0 mg/kg/injection, schedule: Q01DX001 (ip), vehicle: carboxymethylcellulose (CMC) 101 % of control | dose: 200.0 mg/kg/injection, schedule: Q01DX001 (ip), vehicle: carboxymethylcellulose (CMC) 108 % of control | dose: 400.0 mg/kg/injection, schedule: Q01DX001 (ip), vehicle: carboxymethylcellulose (CMC) 106 % of control

C1CCC2C(C1)NC1CCCCC12 (stereo unspecified)
inactive: dose: 100.0 mg/kg/injection, schedule: Q04DX003 (ip), vehicle: saline 97 % of control

CCNC(=O)c1c2ccccc2nc2c1c(C)c(C)c1ccccc12
inactive: [2] 108 % of control | [4] 112 % of control | [6] 106 % of control

CSCCC(NC(=O)C(CO)NC(=O)OCc1ccccc1)C(=O)O (stereo not drawn) (Cbz-Ser-Met-OH; configuration not given here)
inactive: [2] 96 % of control | [4] 97 % of control | [6] 96 % of control

NNC(=O)CCC(N)C(=O)O (stereo unspecified)
inactive: dose: 10.77 mg/kg/injection, schedule: Q01DX Z (ip), vehicle: carboxymethylcellulose (CMC) 94 % of control | dose: 21.53 mg/kg/injection, schedule: Q01DX Z (ip), vehicle: carboxymethylcellulose (CMC) 95 % of control | dose: 43.05 mg/kg/injection, schedule: Q01DX Z (ip), vehicle: carboxymethylcellulose (CMC) 104 % of control | dose: 86.1 mg/kg/injection, schedule: Q01DX Z (ip), vehicle: carboxymethylcellulose (CMC) 111 % of control and 124 % of control

Oc1ccccc1N=Cc1c(O)ccc2ccccc12
inactive: [10] 96 % of control | [11] 98 % of control | [12] 101 % of control

CCc1oc(=O)c2ccccc2c1-c1ccccc1
inactive: dose: 50.0 mg/kg/injection, schedule: Q01DX009 (ip), vehicle: saline with Tween-80 93 % of control | dose: 100.0 mg/kg/injection, schedule: Q01DX009 (ip), vehicle: saline with Tween-80 90 % of control | dose: 200.0 mg/kg/injection, schedule: Q01DX009 (ip), vehicle: saline with Tween-80 93 % of control
